Laboratory results: PubChem BioAssay (NCI)
Values joined by “and” are separate entries in the source; they are usually repeats but may differ in a detail not shown here. Identical values can stand only once.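 Each compound was tested at five concentrations against cells in 96-well plates for 48 hours. GI50 marks 50% less growth. TGI marks complete inhibition of growth.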

Legend:
Test in all cases: NCI tumour cell line growth inhibition, 48 h
KM20L2 colon = system: KM20L2 colon
SW-620 colon = system: SW-620 colon
SK-OV-3 ovarian = system: SK-OV-3 ovarian
SF-295 CNS = system: SF-295 CNS
KM12 colon = system: KM12 colon
NCI-H23 lung = system: NCI-H23 lung
A549 NSCLC = system: A549 NSCLC
SNB-75 CNS = system: SNB-75 CNS
HL-60(TB) leukemia = system: HL-60(TB) leukemia
HOP-62 NSCLC = system: HOP-62 NSCLC
HCT-15 colon = system: HCT-15 colon
HOP-92 NSCLC = system: HOP-92 NSCLC
RXF-631 renal = system: RXF-631 renal
LOX IMVI melanoma = system: LOX IMVI melanoma
T-47D breast = system: T-47D breast
DLD-1 colon = system: DLD-1 colon
SR leukemia = system: SR leukemia
PC-3 prostate = system: PC-3 prostate
786-0 renal = system: 786-0 renal
NCI/ADR-RES ovarian = system: NCI/ADR-RES ovarian
OVCAR-4 ovarian = system: OVCAR-4 ovarian
SN12K1 renal = system: SN12K1 renal
OVCAR-5 ovarian = system: OVCAR-5 ovarian
P388/ADR leukemia = system: P388/ADR leukemia
TK-10 renal = system: TK-10 renal
MDA-N = system: MDA-N
HT29 colon = system: HT29 colon
OVCAR-3 ovarian = system: OVCAR-3 ovarian
COLO 205 colon = system: COLO 205 colon
HOP-18 NSCLC = system: HOP-18 NSCLC
K-562 leukemia = system: K-562 leukemia
SK-MEL-2 melanoma = system: SK-MEL-2 melanoma
M19-MEL melanoma = system: M19-MEL melanoma
ACHN renal = system: ACHN renal
DU-145 prostate = system: DU-145 prostate
SNB-19 CNS = system: SNB-19 CNS
DMS 114 small cell lung = system: DMS 114 small cell lung
BT-549 breast = system: BT-549 breast
RPMI-8226 leukemia = system: RPMI-8226 leukemia
XF 498 CNS = system: XF 498 CNS
UACC-257 melanoma = system: UACC-257 melanoma
HCC-2998 colon = system: HCC-2998 colon
IGROV1 ovarian = system: IGROV1 ovarian
SF-268 CNS = system: SF-268 CNS
OVCAR-8 ovarian = system: OVCAR-8 ovarian
SK-MEL-5 melanoma = system: SK-MEL-5 melanoma
RXF 393 renal = system: RXF 393 renal
EKVX NSCLC = system: EKVX NSCLC
MDA-MB-231 breast = system: MDA-MB-231 breast
DMS 273 small cell lung = system: DMS 273 small cell lung

## COC1=C(C)C(=O)C2=C(C1=O)C(CO)N1C(C#N)C3CC4C(C1C2N1CCOC41)N3C (stereo not given)
KM20L2 colon
  GI50: 26.1 nM
  TGI: 830 nM and 104 nM
SW-620 colon
  GI50: 0.811 nM
  TGI: 1410 nM and 1160 nM and 10600 nM
SK-OV-3 ovarian
  TGI: 1320 nM and 2700 nM and 1700 nM
SF-295 CNS
  GI50: 142 nM
  TGI: 845 nM and 678 nM and 1110 nM
KM12 colon
  GI50: 4.3 nM and 30.5 nM
NCI-H23 lung
  GI50: 1.73 nM and < 13.4 nM
A549 NSCLC
  GI50: 37.5 nM
  TGI: 7840 nM and 11100 nM and 11800 nM
SNB-75 CNS
  GI50: 66.9 nM
  TGI: 141 nM and 226 nM and 338 nM
HL-60(TB) leukemia
  GI50: 0.183 nM
HOP-62 NSCLC
  GI50: 5.57 nM
  TGI: 973 nM and 902 nM and 3340 nM
HCT-15 colon
  GI50: 1.46 nM and 12.9 nM
HOP-92 NSCLC
  GI50: 1.4 nM
RXF-631 renal
  TGI: 3400 nM
LOX IMVI melanoma
  GI50: 2.04 nM
T-47D breast
  GI50: 0.33 nM and < 14.4 nM
DLD-1 colon
  TGI: 836 nM and 5200 nM
SR leukemia
  GI50: 1.59 nM and 5.38 nM
PC-3 prostate
  GI50: 9.46 nM and 88.9 nM and 76.4 nM
  TGI: 663 nM and 387 nM
786-0 renal
  GI50: 2.43 nM
  TGI: 1310 nM and 1550 nM
NCI/ADR-RES ovarian
  TGI: 450 nM and 182 nM
OVCAR-4 ovarian
  GI50: 128 nM and 40.9 nM and 51.6 nM
  TGI: 728 nM and 218 nM and 332 nM
SN12K1 renal
  TGI: 17400 nM
OVCAR-5 ovarian
  TGI: 1090 nM and 587 nM and 1980 nM
P388/ADR leukemia
  TGI: > 100000 nM
TK-10 renal
  GI50: 247 nM and 43.7 nM
  TGI: 4050 nM and 15600 nM
MDA-N
  TGI: 15.6 nM and < 37.4 nM
HT29 colon
  TGI: 423 nM and 77.3 nM
OVCAR-3 ovarian
  TGI: 168 nM and 38.3 nM and < 20 nM
COLO 205 colon
  GI50: 0.734 nM and 6.04 nM and < 13.4 nM
  TGI: 20.3 nM and 15.1 nM and 20.5 nM
HOP-18 NSCLC
  GI50: 48.4 nM
  TGI: 326 nM
K-562 leukemia
  GI50: 6.27 nM and < 10 nM
  TGI: 547 nM and 68.2 nM and 123 nM
SK-MEL-2 melanoma
  TGI: 45.1 nM and 38 nM and 36.4 nM
M19-MEL melanoma
  GI50: 31.9 nM
  TGI: 177 nM and 110 nM
ACHN renal
  GI50: 2.77 nM
  TGI: 3540 nM and 10600 nM
DU-145 prostate
  GI50: 43.8 nM and 362 nM and 133 nM
  TGI: 14000 nM
SNB-19 CNS
  TGI: 8150 nM and 5650 nM and 13600 nM
DMS 114 small cell lung
  GI50: 14.1 nM
  TGI: 34.8 nM and 20.3 nM
BT-549 breast
  GI50: 3.73 nM and 23.2 nM and < 10 nM
  TGI: 9.51 nM and 87.3 nM and < 11.1 nM
RPMI-8226 leukemia
  GI50: 17.7 nM
XF 498 CNS
  GI50: 6.07 nM
  TGI: 18.3 nM and 28.5 nM
UACC-257 melanoma
  GI50: 2.38 nM and 19.8 nM
HCC-2998 colon
  GI50: 3.95 nM
IGROV1 ovarian
  GI50: 2.17 nM and 21.6 nM
SF-268 CNS
  TGI: 940 nM and 408 nM and 1980 nM
OVCAR-8 ovarian
  TGI: 257 nM and 404 nM and 95.7 nM
SK-MEL-5 melanoma
  GI50: 2.64 nM and 26.2 nM
  TGI: 214 nM and 80.2 nM and 114 nM
RXF 393 renal
  GI50: 2.01 nM and 17.8 nM
EKVX NSCLC
  GI50: 4.38 nM and < 14.4 nM
MDA-MB-231 breast
  TGI: 1370 nM
DMS 273 small cell lung
  TGI: 72.2 nM and 67.6 nM
